We go through 24 compounds from patent US11078228B2, “Ectonucleotidase inhibitors and methods of use thereof” (Calithera Biosciences, Inc., priority 2018, dated 2021).

Each structure is given as a SMILES string.

The target in one assay is T1, recombinant CD73 (Homo sapiens (Human), UniProt P21589). The assay is described as follows: Assay 1: Inhibition of the CD73 enzyme in vitro (0.5 nM CD73, 30 min room temperature, Malachite Green). The format is biochemical. To be noted: 0.5 nM CD73, 30 minutes at room temperature. How it is done: For measurements of soluble CD73 enzyme activity, recombinant CD73 was obtained from R&D Systems, Cat. No. 5795-EN-010. […] Reactions were allowed to proceed for 30 minutes at room temperature before the addition of 100 μL Malachite Green (Cell Signaling Technology, Cat. No. 12776). After 5 minutes at room temperature, absorbance at 630 nm was determined on a microplate spectrophotometer. The concentration of inorganic phosphate was determined using a phosphate standard curve.
T1 sequence (P21589 27-547): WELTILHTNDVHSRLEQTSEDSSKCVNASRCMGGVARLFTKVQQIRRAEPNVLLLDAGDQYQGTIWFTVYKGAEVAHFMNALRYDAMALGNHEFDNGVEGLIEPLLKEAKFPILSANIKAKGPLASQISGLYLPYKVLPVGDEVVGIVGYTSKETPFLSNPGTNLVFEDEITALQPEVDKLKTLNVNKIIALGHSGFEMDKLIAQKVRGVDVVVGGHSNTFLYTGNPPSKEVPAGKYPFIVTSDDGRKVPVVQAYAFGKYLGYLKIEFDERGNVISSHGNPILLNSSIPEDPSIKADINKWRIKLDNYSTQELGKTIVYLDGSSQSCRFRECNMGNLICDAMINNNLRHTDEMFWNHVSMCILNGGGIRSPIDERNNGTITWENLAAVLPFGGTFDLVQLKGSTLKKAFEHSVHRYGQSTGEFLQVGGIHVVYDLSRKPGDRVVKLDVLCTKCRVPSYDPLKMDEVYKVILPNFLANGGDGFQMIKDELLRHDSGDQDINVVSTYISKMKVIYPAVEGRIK
By IC50 is commonly meant the concentration that gives 50% inhibition. For `C#C[C@@]1(O)[C@@H](COC(Cc2cccc(OC(F)(F)F)c2)(C(=O)O)C(=O)O)O[C@@H](n2cnc3c(N)nc(Cl)nc32)[C@@H]1O` [Example 23, 2-(((2R,3S,4R,5R)-5-(6-amino-2-chloro-9H-purin-9-yl)-3-ethynyl-3,4-dihydroxytetrahydrofuran-2-yl)methoxy)-2-(3-(trifluoromethoxy)benzyl)malonic acid], the IC50 amounted to 5 nM.

As to `C#C[C@@]1(O)[C@@H](COC(C(=O)O)c2csc(C(=O)O)n2)O[C@@H](n2cnc3c(N)nc(Cl)nc32)[C@@H]1O` (stereo partly drawn) [Example 195, 4-((((2R,3S,4R,5R)-5-(6-amino-2-chloro-9H-purin-9-yl)-3-ethynyl-3,4-dihydroxytetrahydrofuran-2-yl)methoxy)(carboxy)methyl)thiazole-2-carboxylic acid], the IC50 came out at 236 nM.

On to `C[C@@]1(O)[C@@H](COC(Cc2ccc(-c3ccccc3C(=O)O)cc2)(C(=O)O)c2nnn[nH]2)O[C@@H](n2cnc3c(N)nc(Cl)nc32)[C@@H]1O` (stereo partly drawn) [Example 201, 4′-(2-(((2R,3S,4R,5R)-5-(6-amino-2-chloro-9H-purin-9-yl)-3,4-dihydroxy-3-methyltetrahydrofuran-2-yl)methoxy)-2-carboxy-2-(1H-tetrazol-5-yl)ethyl)-[1,1′-biphenyl]-2-carboxylic acid], for which the IC50 came to 204 nM.

With `C#C[C@@]1(O)[C@@H](CO[C@@H](C(=O)O)c2csc(-c3ccccc3)n2)O[C@@H](n2cnc3c(N)nc(Cl)nc32)[C@@H]1O` (single isomer, unassigned) [Example 194], the IC50 was determined as 336 nM.

On to `C[C@@]1(O)[C@@H](CO[C@@](Cc2ccc(-c3ccccc3)cc2)(C(=O)O)c2cscn2)O[C@@H](n2cnc3c(N)nc(Cl)nc32)[C@@H]1O` (single isomer, unassigned) [Example 199], for which the IC50 turned out to be 5760 nM.

On to `C#C[C@@]1(O)[C@@H](COC(Cc2cccc(OC(F)(F)F)c2)(C(=O)O)c2cscn2)O[C@@H](n2cnc3c(N)nc(Cl)nc32)[C@@H]1O` (stereo partly drawn) [Example 183, 2-(((2R,3S,4R,5R)-5-(6-amino-2-chloro-9H-purin-9-yl)-3-ethynyl-3,4-dihydroxytetrahydrofuran-2-yl)methoxy)-2-(thiazol-4-yl)-3-(3-(trifluoromethoxy)phenyl)propanoic acid], for which the IC50 was found to be 56 nM.

Take `C#C[C@@]1(O)[C@@H](CO[C@H](C(=O)O)c2csc(-c3ccccc3)n2)O[C@@H](n2cnc3c(N)nc(Cl)nc32)[C@@H]1O` (single isomer, unassigned) [Example 193]: the IC50 was 263 nM.

On to `C#C[C@@]1(O)[C@@H](COC(Cc2ccccc2)(C(=O)O)C(=O)O)O[C@@H](n2cnc3c(NCc4ccccc4)nc(Cl)nc32)[C@@H]1O` [Example 59, 2-benzyl-2-(((2R,3S,4R,5R)-5-(6-(benzylamino)-2-chloro-9H-purin-9-yl)-3-ethynyl-3,4-dihydroxytetrahydrofuran-2-yl)methoxy)malonic acid], for which the IC50 came to 1 nM.

The next assay concerns the target T1, recombinant CD73. The assay is described as follows: Assay 2: Inhibition of the CD73 enzyme in vitro (0.05 nM CD73, 1 hour 37° C., Malachite Green). The settings on record: 0.05 nM CD73, 50 μM AMP, 1 hour at 37° C. The class given is biochemical. The gist of the method:
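Soluble recombinant CD73 reactions ran 1 hour at 37° C. Malachite Green was then added, and absorbance at 630 nm was read after 5 min at room temperature. Inorganic phosphate was quantified from a phosphate standard curve.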
As to `C#C[C@@]1(O)[C@@H](COC(Cc2ccccc2)(C(=O)O)C(=O)O)O[C@@H](n2cnc3c(NC[C@H](C)O)nc(Cl)nc32)[C@@H]1O` [Example 36, 2-benzyl-2-(((2R,3S,4R,5R)-5-(2-chloro-6-(((S)-2-hydroxypropyl)amino)-9H-purin-9-yl)-3-ethynyl-3,4-dihydroxytetrahydrofuran-2-yl)methoxy)malonic acid], the IC50 was 4 nM.

For `C#C[C@@]1(O)[C@@H](COC(Cc2ccccc2)(C(=O)O)C(=O)O)O[C@@H](n2cnc3c(NC[C@@H](C)O)nc(Cl)nc32)[C@@H]1O` [Example 35, 2-benzyl-2-(((2R,3S,4R,5R)-5-(2-chloro-6-(((R)-2-hydroxypropyl)amino)-9H-purin-9-yl)-3-ethynyl-3,4-dihydroxytetrahydrofuran-2-yl)methoxy)malonic acid], the IC50 is 4 nM.

Take `C#C[C@@]1(O)[C@@H](COC(Cc2ccccc2)(C(=O)O)C(=O)O)O[C@@H](n2cnc3c(NCC4(O)CC4)nc(Cl)nc32)[C@@H]1O` [Example 44, 2-benzyl-2-(((2R,3S,4R,5R)-5-(2-chloro-6-(((1-hydroxycyclopropyl)-methyl)amino)-9H-purin-9-yl)-3-ethynyl-3,4-dihydroxytetrahydrofuran-2-yl)methoxy)malonic acid]: the IC50 worked out at 62 nM.

On to `C#C[C@@]1(O)[C@@H](COC(Cc2ccc(-c3cccnc3OC)cc2)(C(=O)O)C(=O)O)O[C@@H](n2cnc3c(N)nc(Cl)nc32)[C@@H]1O` [Example 22, 2-(((2R,3S,4R,5R)-5-(6-amino-2-chloro-9H-purin-9-yl)-3-ethynyl-3,4-dihydroxytetrahydrofuran-2-yl)methoxy)-2-(4-(2-methoxypyridin-3-yl)benzyl)malonic acid], for which the IC50 came out at 0.3 nM.

For `CC#C[C@@]1(O)[C@@H](COC(Cc2ccccc2)(C(=O)O)C(=O)O)O[C@@H](n2cnc3c(N)nc(Cl)nc32)[C@@H]1O` [Compound 3, 2-(((2R,3S,4R,5R)-5-(6-amino-2-chloro-9H-purin-9-yl)-3,4-dihydroxy-3-(prop-1-yn-1-yl)tetrahydrofuran-2-yl)methoxy)-2-benzylmalonic acid], the IC50 was found to be 1 nM.

As for `C#C[C@@]1(O)[C@@H](CO[C@](Cc2ccccc2)(C(=O)O)c2cscn2)O[C@@H](n2cnc3c(NCC4CC4)nc(Cl)nc32)[C@@H]1O` (single isomer, unassigned) [Example 172], the IC50 was found to be 6 nM.

`C#C[C@@]1(O)[C@@H](COC(Cc2ccc(N3CCCN(CCO)C3=O)cc2)(C(=O)O)C(=O)O)O[C@@H](n2cnc3c(NCC4CC4)nc(Cl)nc32)[C@@H]1O` [Example 138, 2-(((2R,3S,4R,5R)-5-(2-chloro-6-((cyclopropylmethyl)amino)-9H-purin-9-yl)-3-ethynyl-3,4-dihydroxytetrahydrofuran-2-yl)methoxy)-2-(4-(3-(2-hydroxyethyl)-2-oxotetrahydropyrimidin-1 (2H)-yl)benzyl)malonic acid]: the IC50 came out at 0.15 nM.

On to `C#C[C@@]1(O)[C@@H](COC(Cc2ccccc2)(C(=O)O)C(=O)O)O[C@@H](n2cnc3c(NCC)nc(Cl)nc32)[C@@H]1O` [Example 73, 2-benzyl-2-(((2R,3S,4R,5R)-5-(2-chloro-6-(ethylamino)-9H-purin-9-yl)-3-ethynyl-3,4-dihydroxytetrahydrofuran-2-yl)methoxy)malonic acid], for which the IC50 was found to be 1 nM.

With `C#C[C@@]1(O)[C@@H](CO[C@@](Cc2ccccc2)(C(=O)O)c2cscn2)O[C@@H](n2cnc3c(NC(C)C)nc(Cl)nc32)[C@@H]1O` (single isomer, unassigned) [Example 171], the IC50 came to 96 nM.

Regarding `C#C[C@@]1(O)[C@@H](COC(CC=C)(C(=O)O)C(=O)O)O[C@@H](n2cnc3c(N)nc(Cl)nc32)[C@@H]1O` [Example 15, 2-allyl-2-(((2R,3S,4R,5R)-5-(6-amino-2-chloro-9H-purin-9-yl)-3-ethynyl-3,4-dihydroxytetrahydrofuran-2-yl)methoxy)malonic acid], the IC50 turned out to be 20 nM.

For the compound `C#C[C@@]1(O)[C@@H](COC(Cc2ccc(-c3cccn(COC)c3=O)cc2)(C(=O)O)C(=O)O)O[C@@H](n2cnc3c(N)nc(Cl)nc32)[C@@H]1O` [Compound 11, 2-(((2R,3S,4R,5R)-5-(6-amino-2-chloro-9H-purin-9-yl)-3-ethynyl-3,4-dihydroxytetrahydrofuran-2-yl)methoxy)-2-(4-(1-(methoxymethyl)-2-oxo-1,2-dihydropyridin-3-yl)benzyl)malonic acid], the IC50 was determined as 0.06 nM.

`C#C[C@@]1(O)[C@@H](COC(Cc2ccc(OC(F)(F)F)cc2)(C(=O)O)c2cscn2)O[C@@H](n2cnc3c(NC(C)C)nc(Cl)nc32)[C@@H]1O` (stereo partly drawn) [Example 174, 2-(((2R,3S,4R,5R)-5-(2-chloro-6-(isopropylamino)-9H-purin-9-yl)-3-ethynyl-3,4-dihydroxytetrahydrofuran-2-yl)methoxy)-2-(thiazol-4-yl)-3-(4-(trifluoromethoxy)phenyl)propanoic acid]: the IC50 worked out at 17 nM.

For `C#C[C@@]1(O)[C@@H](COC(Cc2ccc(N3CCCN(CCO)C3=O)cc2)(C(=O)O)C(=O)O)O[C@@H](n2cnc3c(NC(C)C)nc(Cl)nc32)[C@@H]1O` [Example 139, 2-(((2R,3S,4R,5R)-5-(2-chloro-6-(isopropylamino)-9H-purin-9-yl)-3-ethynyl-3,4-dihydroxytetrahydrofuran-2-yl)methoxy)-2-(4-(3-(2-hydroxyethyl)-2-oxotetrahydropyrimidin-1 (2H)-yl)benzyl)malonic acid], the IC50 was determined as 0.13 nM.

In the case of `C#C[C@@]1(O)[C@@H](COC(Cc2ccccc2)(C(=O)O)C(=O)O)O[C@@H](n2cnc3c(N4CCCCCC4)nc(Cl)nc32)[C@@H]1O` [Example 80, 2-(((2R,3S,4R,5R)-5-(6-(azepan-1-yl)-2-chloro-9H-purin-9-yl)-3-ethynyl-3,4-dihydroxytetrahydrofuran-2-yl)methoxy)-2-benzylmalonic acid], the IC50 was 2 nM.

For the compound `C#C[C@@]1(O)[C@@H](COC(Cc2ccccc2)(C(=O)O)C(=O)O)O[C@@H](n2cnc3c(NCC(C)(C)O)nc(Cl)nc32)[C@@H]1O` [Example 94, 2-benzyl-2-(((2R,3S,4R,5R)-5-(2-chloro-6-((2-hydroxy-2-methylpropyl)amino)-9H-purin-9-yl)-3-ethynyl-3,4-dihydroxytetrahydrofuran-2-yl)methoxy)malonic acid], the IC50 stood at 5 nM.

As for `C#C[C@@]1(O)[C@@H](COC(CC)(C(=O)O)C(=O)O)O[C@@H](n2cnc3c(N)nc(Cl)nc32)[C@@H]1O` [Example 16, 2-(((2R,3S,4R,5R)-5-(6-amino-2-chloro-9H-purin-9-yl)-3-ethynyl-3,4-dihydroxytetrahydrofuran-2-yl)methoxy)-2-ethylmalonic acid], the IC50 is 24 nM.
